Experiment: solvent given as SMILES

[N]=O
Conditions | solvation free energy, 298 K [kcal/mol]
in CC#N | 0.63
in CCCCCC | 0.47
in CCO | 0.81
in CCOC(C)=O | 0.55
in CCOCC | 0.34
in CO | 0.62
in Cc1cccc(C)c1 | 0.79
in Cc1ccccc1 | 0.76
in ClC(Cl)(Cl)Cl | 0.62

COCc1ccc(C(=O)O)cc1
Conditions | solvation free energy, 298 K [kcal/mol]
in C=CCCCCCCCCCCCCCC | -8.27
in O | -9.89

CCCCCCCCCCOC(=O)c1ccccc1C(=O)OCCCCC
Conditions | solvation free energy, 298 K [kcal/mol]
in O | -6.49

C#CCC
Conditions | solvation free energy, 298 K [kcal/mol]
in C1COCCO1 | -3
in CC(C)=O | -2.99
in CC(C)CC(C)(C)C | -2.36
in CN(C)C=O | -2.92
in COC(C)=O | -3.03
in O | -0.16

CN(C)CCC(c1ccc(Br)cc1)c1ccccn1 (centres undefined)
Conditions | solvation free energy, 298 K [kcal/mol]
in O | -11.6

C=CC1(C)CCC(C(C)C)=CC1C(=C)C (centres undefined)
Conditions | solvation free energy, 298 K [kcal/mol]
in O | -0.42

CCCC(C)(C)C
Conditions | solvation free energy, 298 K [kcal/mol]
in C=CCCCCCCCCCCCCCC | -3.7
in CC#N | -2.7
in CN1CCCC1=O | -2.66
in O | 2.88

CCI
Conditions | solvation free energy, 298 K [kcal/mol]
in Brc1cccc2ccccc12 | -3.97
in Brc1ccccc1 | -4.23
in C1CCOC1 | -4.45
in C1COCCO1 | -4.21
in C=CCCCCCCCCCCCCCC | -3.53
in CC1COC(=O)O1 | -3.71
in CC#N | -3.81
in CC(=O)N(C)C | -3.97
in CC(=O)OCc1ccccc1 | -3.91
in CC(=O)c1ccccc1 | -4.05
in CC(C)(C)O | -3.48
in CC(C)=O | -4
in CC(C)CC(C)(C)C | -3.61
in CC(C)CCO | -3.75
in CC(C)O | -3.56
in CCC#N | -3.94
in CCC(C)=O | -4.1
in CCCBr | -4.31
in CCCCCC | -3.73
in CCCCCCC | -3.68
in CCCCCCCC | -3.66
in CCCCCCCCO | -3.53
in CCCCCl | -4.15
in CCCCO | -3.63
in CCCO | -3.55
in CCO | -3.57
in CCOC(=O)c1ccccc1 | -3.99
in CCOC(C)=O | -4.04
in CCOCC | -3.78
in CN(C)C=O | -3.83
in CO | -3.58
in CS(C)=O | -3.82
in Cc1ccc(C)cc1 | -4.14
in Cc1ccccc1 | -4.2
in ClC1CCCCC1 | -4.19
in ClC(Cl)(Cl)Cl | -4.17
in ClC(Cl)C(Cl)Cl | -4.41
in ClC(Cl)Cl | -4.44
in ClCCCl | -4.2
in ClCCl | -4.12
in Clc1ccccc1 | -4.22
in Ic1ccccc1 | -4.29
in N#Cc1ccccc1 | -4
in O | -0.74
in O=C1CCCCC1 | -4.18
in c1ccc2ncccc2c1 | -3.93
in c1ccccc1 | -4.32

OCC(O)C(O)C(O)C(O)CO (centres undefined)
Conditions | solvation free energy, 298 K [kcal/mol]
in O | -23.6

Clc1cccc(Cl)c1
Conditions | solvation free energy, 298 K [kcal/mol]
in CCCCCC | -6.18
in CCCCCCCCO | -5.63
in O | -1.05

Cc1ccc(O)cc1C
Conditions | solvation free energy, 298 K [kcal/mol]
in CCCCCC | -6.89
in CCCCCCC | -6.89
in CCCCCCCC | -6.85
in O | -6.51

CCCCCCCCCCCO
Conditions | solvation free energy, 298 K [kcal/mol]
in CCCCCCCCCCO | -10.3

CCCCCC=O
Conditions | solvation free energy, 298 K [kcal/mol]
in CCCCCCCC | -4.76
in CCCCCCCCCCCCCCCC | -4.52
in CCCCCCCCO | -5.95
in NC=O | -4.02
in O | -2.74
in [2H]O[2H] | -2.75

C=C(Cl)Cl
Conditions | solvation free energy, 298 K [kcal/mol]
in CCO | -3.25
in CO | -2.95
in O | 0.22

CC(C)SC(C)C
Conditions | solvation free energy, 298 K [kcal/mol]
in O | -1.21

CCC(C)Cl (centres undefined)
Conditions | solvation free energy, 298 K [kcal/mol]
in C1CCOC1 | -4.34
in C1CCOCC1 | -4.24
in C1COCCO1 | -4.08
in C=CCCCCCCCCCCCCCC | -3.46
in CC(C)OC(C)C | -3.95
in CCCCCC | -3.84
in CCCCCl | -4.16
in COC(C)(C)C | -4.08

CCCCOC
Conditions | solvation free energy, 298 K [kcal/mol]
in CCCCCl | -4.26
in ClC(Cl)(Cl)Cl | -4.39
in ClCCl | -4.71

CC=C(C)C=CC=C(C)C
Conditions | solvation free energy, 298 K [kcal/mol]
in O | -0.55

CCOP(=O)(OCC)OCC
Conditions | solvation free energy, 298 K [kcal/mol]
in O | -7.5

Cc1c(C)c(C)c(C)c(C)c1C
Conditions | solvation free energy, 298 K [kcal/mol]
in CCCCCCCCO | -8.61
in O | -1.95

CCOC(=O)c1ccc(O)cc1
Conditions | solvation free energy, 298 K [kcal/mol]
in O | -9.2

ClCCCCl
Conditions | solvation free energy, 298 K [kcal/mol]
in CC(C)=O | -5.63
in CCCCCC | -4.43
in ClC(Cl)(Cl)Cl | -5.2
in O | -1.89

CCc1cccc2ccccc12
Conditions | solvation free energy, 298 K [kcal/mol]
in O | -2.3

CC(C)N(N=O)C(C)C
Conditions | solvation free energy, 298 K [kcal/mol]
in CC(C)CC(C)(C)C | -6.07
in O | -5.16

CS(C)(=O)=O
Conditions | solvation free energy, 298 K [kcal/mol]
in O | -10.1

CCCCCCCCC=CCCCCCCCCCCCC(=O)OC
Conditions | solvation free energy, 298 K [kcal/mol]
in O | -1.09

CC(C)CCC(C)C
Conditions | solvation free energy, 298 K [kcal/mol]
in Brc1ccccc1 | -4.53
in C1CCCCC1 | -5.02
in C1CCOC1 | -4.85
in C1COCCO1 | -4.04
in C=CCCCC | -4.95
in C=CCCCCCC | -4.85
in C=CCCCCCCCC | -4.75
in CC1COC(=O)O1 | -2.64
in CC#N | -3.31
in CC(=O)N(C)C | -3.54
in CC(=O)O | -3.59
in CC(=O)c1ccccc1 | -3.84
in CC(C)=O | -4.03
in CC(C)CC(C)(C)C | -4.84
in CC(C)CCCC(C)CCCC(C)CCCCC(C)CCCC(C)CCCC(C)C | -4.35
in CC(C)CCO | -4.21
in CC(C)O | -3.99
in CC(C)OC(C)C | -4.85
in CCBr | -4.97
in CCC#N | -3.76
in CCC(C)=O | -4.29
in CCCC#N | -4
in CCCC(=O)OCC | -4.52
in CCCC(C)=O | -4.38
in CCCCC | -5.01
in CCCCCC | -4.97
in CCCCCC(C)=O | -4.4
in CCCCCCC | -4.9
in CCCCCCCC | -4.83
in CCCCCCCCC | -4.79
in CCCCCCCCCC | -4.74
in CCCCCCCCCCCC | -4.63
in CCCCCCCCCCCCCCCC | -4.53
in CCCCCCCCO | -4.21
in CCCCCCOC(C)=O | -4.48
in CCCCO | -4.1
in CCCCOC(C)=O | -4.46
in CCCCOCCCC | -4.81
in CCCO | -4.07
in CCN(CC)CC | -4.89
in CCO | -3.92
in CCOC(C)=O | -4.31
in CCOCC | -4.91
in CCOCCOCCOCC | -4.23
in CCOc1ccccc1 | -4.31
in CN1CCCC1=O | -3.42
in CN(C)C=O | -3.35
in CN(C)P(=O)(N(C)C)N(C)C | -3.84
in CNC=O | -2.97
in CO | -3.55
in COC(C)=O | -4.11
in COCCO | -3.43
in COc1ccccc1 | -4.22
in CS(C)=O | -2.41
in Cc1ccc(C)cc1 | -4.77
in Cc1ccccc1 | -4.76
in Cc1ccccn1 | -4.33
in ClC(Cl)(Cl)Cl | -5.01
in ClC(Cl)Cl | -4.88
in ClCCCl | -4.29
in ClCCl | -4.64
in Clc1ccccc1 | -4.75
in FC(F)(F)C(F)(F)C(F)(F)C(F)(F)C(F)(F)C(F)(F)C(F)(F)C(F)(F)F | -3.22
in FC(F)(F)C(F)(F)C(F)(F)C(F)(F)C(F)(F)C(F)(F)F | -3.3
in Fc1ccccc1 | -4.66
in ICI | -2.71
in N#Cc1ccccc1 | -3.85
in Nc1ccccc1 | -3.11
in O | 2.78
in O=C1CCCCC1 | -4.2
in O=C1CCCO1 | -2.85
in OCc1ccccc1 | -3.33
in S=C=S | -4.94
in c1ccccc1 | -4.76
in c1ccncc1 | -4.06

CC(C)Cc1cnccn1
Conditions | solvation free energy, 298 K [kcal/mol]
in O | -5.04

CC1=CCC23C(C)CCC(C(C)C)C2C13 (centres undefined)
Conditions | solvation free energy, 298 K [kcal/mol]
in O | 0.56

C=CC(C)(C)C
Conditions | solvation free energy, 298 K [kcal/mol]
in C=CCCCCCCCCCCCCCC | -2.97
in O | 1.57

Source: the CombiSolv-Exp solvation set (Vermeire and Green 2021)
